25 molecules from ChEMBL document CHEMBL1201862, “PubChem BioAssay data set” (2004) can be followed below.

Among the test systems are DLD-1; M19-MEL; XF498; HOP-18; DMS-114; DMS-273; SNB-78; LXFL 529; RXF 631.
Common to all, as to assay: growth of human tumour cells (NCI), 48 h

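In this assay, cells in 96-well plates receive the compound at five concentrations for 48 hours. Endpoints are linearly interpolated between the surrounding concentrations. GI50 marks 50% less growth.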 Active and inactive are the calls of the source. Rule as the data show it: active = GI50 up to about 1.1 µM and inactive = higher.

Consider `Cc1c2cnccc2c(C)c2c1c1ccccc1n2CCOC(=O)c1ccccc1`, for which the GI50 is 7.69 µM (inactive) with DLD-1; 13.9 µM (inactive) in the assay with M19-MEL; 3.27 µM (inactive) in the assay with XF498; 20.7 µM (inactive) in the assay with HOP-18; 9.51 µM (inactive) with DMS-114; 4.86 µM (inactive) with DMS-273. Moreover, in the assay with SNB-78, the GI50 is 12.2 µM (inactive).
Consider `O=C1CC(O)(c2ccccc2)C(c2ccccc2)=C1c1ccccc1` (stereo not given), for which the GI50 with DLD-1 was 44.2 µM (inactive); with M19-MEL, 29.6 µM (inactive); with XF498, 24.4 µM (inactive); in the assay on DMS-114, 26.2 µM (inactive); with DMS-273, 34.6 µM (inactive); with LXFL 529, 35.3 µM (inactive). The GI50 with SNB-78 was 73.6 µM (inactive).
Consider `Cn1cnc([N+](=O)[O-])c1Sc1nnc(-c2cccnc2)n1C`, for which the GI50 in the assay on DLD-1 is 18.8 µM (inactive); with M19-MEL it was 19.1 µM (inactive); in the assay on XF498 it was 20.4 µM (inactive); with HOP-18, 14.6 µM (inactive); in the assay on DMS-114, 18.9 µM (inactive); with DMS-273, 80.2 µM (inactive). The results for the GI50 in the assay with LXFL 529 and with SNB-78 were 12 µM (inactive) and 21.4 µM (inactive), respectively.
`C=C=C[P+](c1ccccc1)(c1ccccc1)c1ccccc1`: the GI50 is 5.61 µM (inactive) with DLD-1; 14.5 µM (inactive) in the assay with M19-MEL; 46.7 µM (inactive) with HOP-18; 8.69 µM (inactive) with DMS-114; 27.6 µM (inactive) with DMS-273; 3.91 µM (inactive) in the assay on LXFL 529. The GI50 in the assay with SNB-78 is 16.9 µM (inactive).
Consider `CN(C)[C@@H]1C(O)=C(C(N)=O)C(=O)[C@@]2(O)C(O)=C3C(=O)c4c(O)cccc4C[C@H]3C[C@@H]12`, for which the GI50 in the assay with DLD-1 was 2.66 µM (inactive); in the assay with M19-MEL, 1.68 µM (inactive); in the assay with HOP-18, 1.79 µM (inactive); with DMS-114, 2.52 µM (inactive); in the assay on DMS-273, 2.17 µM (inactive); in the assay on LXFL 529, 1.92 µM (inactive).
Turning to `Cc1nc2ccncc2[nH]1`, the GI50 in the assay with DLD-1 was > 100 µM (inactive); with M19-MEL, > 100 µM (inactive); with XF498, 58.6 µM (inactive); in the assay with RXF 631, > 100 µM (inactive); with DMS-114 it was > 100 µM (inactive); with DMS-273, > 100 µM (inactive). In addition, the GI50 with LXFL 529 is > 100 µM (inactive).
For the molecule `O=C1OC(CC(=O)c2ccc(Cl)cc2)C(Cl)=C1Cl` (stereo not given), the GI50 with DLD-1 was 52.6 µM (inactive); in the assay with M19-MEL it was > 100 µM (inactive); in the assay with XF498, > 100 µM (inactive); in the assay on HOP-18, > 100 µM (inactive); in the assay with DMS-114 it was > 100 µM (inactive); in the assay with DMS-273 it was > 100 µM (inactive). For the same molecule, in the assay on LXFL 529, the GI50 is > 100 µM (inactive).
Take `CSc1nc2c(nc(C)c(=O)n2C2OCC(OC(C)=O)C(OC(C)=O)C2OC(C)=O)c(=O)[nH]1` (stereo not given): the GI50 in the assay with DLD-1, in the assay with M19-MEL, in the assay on XF498, with DMS-114, in the assay on DMS-273 and in the assay with LXFL 529 was > 100 µM (inactive) each time.
With `O=C(c1ccc(NCN2C(=O)CCC2=O)cc1)c1ccc(NCN2C(=O)CCC2=O)cc1`, the GI50 in the assay on DLD-1 was > 100 µM (inactive); in the assay on M19-MEL it was > 100 µM (inactive); with XF498, > 100 µM (inactive); with RXF 631, > 100 µM (inactive); with DMS-273, 49.8 µM (inactive); in the assay with LXFL 529, > 100 µM (inactive). In the assay on SNB-78, the GI50 is > 100 µM (inactive).
As to `CCN(CC)c1ccc2cc3ccc(N(CC)CC)cc3[o+]c2c1`, the GI50 in the assay with DLD-1 was 1.39 µM (inactive); with XF498, 1.23 µM (inactive); with DMS-114, 0.687 µM (active); in the assay on DMS-273 it was 1.12 µM (active); in the assay with LXFL 529, 0.457 µM (active); in the assay on SNB-78, 2.43 µM (inactive).
Consider `COc1ccccc1/C=C1\C(=O)N(C(=O)Cc2ccccc2)N=C1C`, for which the GI50 is > 100 µM (inactive) in the assay with DLD-1; > 100 µM (inactive) with M19-MEL; > 100 µM (inactive) in the assay on XF498; 13.1 µM (inactive) in the assay on HOP-18; > 100 µM (inactive) with DMS-114; > 100 µM (inactive) with DMS-273. Also, in the assay on SNB-78, the GI50 is > 100 µM (inactive).
As to `Cc1nc(C(N)=S)sc1C(=O)CC(=O)C(=O)Nc1ccccc1[N+](=O)[O-]`, the GI50 in the assay with DLD-1, in the assay on M19-MEL, in the assay with HOP-18, in the assay with RXF 631, in the assay on DMS-114 and in the assay with DMS-273 was > 100 µM (inactive) in each case. Further, the GI50 in the assay on LXFL 529 and in the assay on SNB-78 was > 100 µM (inactive) throughout.
Turning to `COc1nc(=O)n(COC(CO)CN2C(=O)c3ccccc3C2=O)cc1Cc1cccc(OCc2ccccc2)c1` (stereo not given), the GI50 with DLD-1 was 28.3 µM (inactive); in the assay with M19-MEL it was 20.7 µM (inactive); in the assay on HOP-18 it was 27.5 µM (inactive); with DMS-114, 22 µM (inactive); in the assay on DMS-273 it was 19.4 µM (inactive); in the assay on LXFL 529, 30.1 µM (inactive). The GI50 in the assay on SNB-78 is 31.6 µM (inactive).
With `COc1ccc(C2=NN(c3ccccc3)C[N+](c3ccc(OC)cc3)=N2)cc1`, the GI50 in the assay on DLD-1 is 28.8 µM (inactive); in the assay on M19-MEL it was 30.5 µM (inactive); in the assay on XF498, 18.8 µM (inactive); in the assay on DMS-114, 24.2 µM (inactive); with DMS-273, 24.5 µM (inactive); in the assay on LXFL 529 it was 17.2 µM (inactive). The GI50 in the assay with SNB-78 is 28.2 µM (inactive).
Turning to `O=C(Cc1ccccc1)NN1C(=O)C(Cl)C1c1ccc([N+](=O)[O-])cc1` (stereo not given), the GI50 was > 100 µM (inactive) with DLD-1; > 100 µM (inactive) with M19-MEL; > 100 µM (inactive) in the assay with XF498; > 100 µM (inactive) in the assay with HOP-18; 28.6 µM (inactive) in the assay on DMS-114; > 100 µM (inactive) in the assay with DMS-273. The GI50 in the assay on LXFL 529 is 95.9 µM (inactive); with SNB-78, 45.9 µM (inactive).
For `C/C=C(\NC(=O)C(CCCCN)NC(=O)C(C)NC(=O)C1CSC(C)C(NC(=O)C2CSCC(NC(=O)C(C)NC(=O)C(N)C(C)CC)C(=O)NC(CCCCN)C(=O)NC(Cc3ccccc3)C(=O)NC(CC(C)C)C(=O)N2)C(=O)N2CCCC2C(=O)NCC(=O)N1)C(=O)NCC(=O)NC1CSCC2NC(=O)C(Cc3ccc(O)cc3)NC(=O)C(CSC=CNC2=O)NC(=O)C(CC(N)=O)NC(=O)C(Cc2ccccc2)NC1=O` (stereo not given), the GI50 is > 100 µM (inactive) with DLD-1; 67.8 µM (inactive) in the assay with M19-MEL; > 100 µM (inactive) in the assay on XF498; > 100 µM (inactive) with DMS-114; 57.1 µM (inactive) in the assay with DMS-273; > 100 µM (inactive) with LXFL 529. For the same molecule, the GI50 in the assay with SNB-78 is > 100 µM (inactive).
For `Nc1nnc(N)n1N`, the GI50 was > 100 µM (inactive) in the assay with DLD-1; > 100 µM (inactive) in the assay with M19-MEL; 28.8 µM (inactive) in the assay on XF498; > 100 µM (inactive) in the assay on RXF 631; > 100 µM (inactive) in the assay on DMS-114; > 100 µM (inactive) in the assay on DMS-273. In addition, the GI50 in the assay on LXFL 529 and with SNB-78 was > 100 µM (inactive) each time.
For the molecule `COc1ccc(/C(=N/NC(N)=O)C2(O)C(=O)Nc3ccc([N+](=O)[O-])cc32)cc1` (stereo not given), the GI50 with DLD-1 was 21.3 µM (inactive); in the assay with M19-MEL it was 20.7 µM (inactive); with XF498, 16.5 µM (inactive); in the assay with DMS-114 it was 19.7 µM (inactive); with DMS-273, 18.3 µM (inactive); with LXFL 529, 18.3 µM (inactive). Moreover, in the assay with SNB-78, the GI50 was 17.8 µM (inactive).
With `COC1C(CN[N+](=O)CC2OC3OC(C)(C)OC3C2OC)OC2OC(C)(C)OC21` (stereo not given), the GI50 in the assay with DLD-1, in the assay with M19-MEL, with HOP-18, in the assay with RXF 631, in the assay on DMS-114 and in the assay on DMS-273 was > 100 µM (inactive) each time. For the same molecule, the GI50 in the assay with SNB-78 is > 100 µM (inactive).
With `CN1c2ccccc2N(C)C2C1N(C)c1ccccc1N2C` (stereo not given), the GI50 in the assay on DLD-1 was 14.1 µM (inactive); in the assay with M19-MEL, 6.84 µM (inactive); in the assay with XF498 it was 7 µM (inactive); in the assay with RXF 631 it was 37.1 µM (inactive); in the assay with DMS-114 it was 5.71 µM (inactive); in the assay on DMS-273 it was 8.75 µM (inactive). In addition, the figures for the GI50 in the assay with LXFL 529 and with SNB-78 were 12.6 µM (inactive) and 18.9 µM (inactive), respectively.
Turning to `Cc1c(C(=O)CC(=O)C(=O)Nc2ccccc2C(F)(F)F)[n+]([O-])c2ccccc2[n+]1[O-]`, the GI50 with XF498 was 9.44 µM (inactive); in the assay on HOP-18, 2.2 µM (inactive); in the assay with DMS-114, 11.5 µM (inactive); with DMS-273 it was 25.8 µM (inactive); in the assay on LXFL 529, 20.8 µM (inactive); with SNB-78, 47.2 µM (inactive).
With `CCOC(=O)Cn1c(=O)n(C)c(=O)c2[nH]cnc21`, the GI50 in the assay on DLD-1, in the assay on M19-MEL, in the assay with XF498, in the assay with DMS-114, in the assay on DMS-273 and in the assay on LXFL 529 was > 100 µM (inactive) in each case. Also, the GI50 in the assay on SNB-78 is > 100 µM (inactive).
With `N#Cc1cccc(N2C(=O)c3ccc(C(=O)c4ccc5c(c4)C(=O)N(c4cccc(C#N)c4)C5=O)cc3C2=O)c1`, the GI50 in the assay with DLD-1, in the assay with M19-MEL, with XF498, in the assay with HOP-18, with DMS-114 and with DMS-273 was > 100 µM (inactive) in each case. The GI50 with LXFL 529 and with SNB-78 was > 100 µM (inactive) each time.
Regarding `CN1N=C2c3ccccc3CC[C@H]2C1c1ccccc1` (stereo not given in full), the GI50 in the assay on DLD-1 was 41.8 µM (inactive); with M19-MEL it was 15.7 µM (inactive); with HOP-18, > 100 µM (inactive); in the assay on DMS-114 it was 22.5 µM (inactive); in the assay with DMS-273 it was 26.6 µM (inactive); with LXFL 529 it was 15.4 µM (inactive). Besides, in the assay on SNB-78, the GI50 is 83.9 µM (inactive).
On to `Brc1ccc(C[N+]23CN4CN(CN(C4)C2)C3)cc1`, for which the GI50 is > 10 µM (inactive) in the assay on DLD-1; 41.8 µM (inactive) with M19-MEL; 23.6 µM (inactive) with DMS-114; 22.5 µM (inactive) in the assay on DMS-273; 83.2 µM (inactive) in the assay with SNB-78.
